From PMC12177571, “Glycosidase-activated prodrugs of a cytotoxic iron chelator for targeted cancer therapy” (RSC Medicinal Chemistry, 2025)

Assays:
A549 cells = experiment: MTT cell viability assay, A549 cells; assay type: cell-based; conditions: Homo sapiens, 72 h incubation, mean and SD of three independent experiments, read-out: IC50 against A549
Protocol: (§1) Next, the cytotoxicity of the prodrugs was assessed in the human lung cancer (A549) and human ovarian cancer (OvCar-3) cell lines: overexpressing β-glucosidase, and, overexpressing both β-glucosidase and β-galactosidase, respectively.[40,41] For this, a standard MTT assay was employed to generate the proliferation profiles (cf. ESI ^† Fig. S1–S5) and allowed us to calculate the IC50 values for each compound. GM5756 fibroblast cells were included as non-cancerous control.
(§2) Cell culture. Ovcar-3 cells were maintained in RPMI-1640 medium (Invitrogen), A549 cells were maintained in high glucose (4.5 g/L) Dulbecco’s Modified Eagle’s medium (Invitrogen. Alle employed culture media were supplemented with 10% fetal bovine serum (Gibco), 2% penicillin/streptomycin (Sigma Aldrich), 1%GlutaMAX™-I (100x, Gibco), and 1% sodium pyruvate (100 mM, Gibco).
(§3) Cells were kept under a humidified atmosphere of 10% CO2 and 90% air at 37°C. Cells were split when they reached 90% confluency. All employed cell lines were sourced from the German Collection of Microorganisms and Cell Cultures (Leibnitz Institute, DSMZ).
(§4) Cell viability studies and MTT assays. Cells were harvested and plated on a 96-well plate in 100 µL growth medium at a density of 1500 cells per well. The cells were left to grow for 24 h at 37°C under a humidified atmosphere with 10% CO2. The next day, 100 µL of growth medium containing appropriate concentrations of the investigated compound were added to each well. As a control, the first row of wells was treated with 100 µL medium containing only the vehicle (1% DMSO); all wells contained a final concentration of 0.5% DMSO for the duration of the treatment. After incubation with the compound for 72 h, 50 µL of MTT solution (2.5 mg/mL 3-(4,5-dimethylthiazol-2-yl)-2,5-diphenyltetrazolium bromide dye in PBS buffer) was added to each well. After an additional incubation for 2 h, the supernatant was aspired off and 200 µL of DMSO was added to each well to solubilize the precipitated formazan dye. The produced formazan dye was quantified by measuring the optical density of the solution at 550 nm with a Tecan Infinite M Nano+ plate reader. A baseline correction was performed by subtracting a reference absorbance at 620 nm for each well. From the mean of the corrected absorbances for each set of equivalent wells, a dose-response curve was produced, which was then normalized to the wells containing untreated cells to allow for plate-to-plate comparison. The resulting dose-response curves were subjected to non-linear regression analysis performed in Microsoft Excel (version 16.64) to determine IC50 via the Hill-Langmuir model. Data is shown as the mean of three replicate experiments and error bars represent the standard deviation at each datum point.

OvCar-3 cells = experiment: MTT cell viability assay, OvCar-3 cells; assay type: cell-based; conditions: Homo sapiens, 72 h incubation, mean and SD of three independent experiments, read-out: IC50 against OvCar-3
Protocol: as §1, §2, §3, §4

GM5756 fibroblast cells = experiment: MTT cell viability assay, GM5756 fibroblast cells (non-cancerous control); assay type: cell-based; conditions: 72 h incubation, mean and SD of three independent experiments, read-out: IC50 against GM5756
Protocol: as §1, §2, §3, §4

[1] = Fe(III) binding study by UV-vis spectroscopy; conditions: 30 μM compound, excess FeCl3 (50 μM), methanol
Protocol: With the prodrugs in hand, binding studies were carried out using UV-vis spectroscopy; this was done to confirm the Fe(III) binding ability of all new compounds. […] To evaluate whether 2a, 2b, 3a, and 3b were chelating Fe(III), each prodrug was similarly dissolved in a solution containing excess FeCl3.
Fig. 2 UV-vis absorption spectra for prodrugs 2a/b and 3a/b as well as 1 at a concentration of 30 μM with an excess of FeCl3 as Fe(III) source (50 μM) in methanol.
UV-vis spectra were recorded in methanol containing the indicated ligand or prodrug at a concentration of 30 µM and as appropriate Fe(III) at a concentration of 50 µM. A stock solution of FeCl3 in DMSO was used as source of Fe(III) and ligands were added from a […] stock solution in DMSO. All samples contained a final concentration of <0.2% DMSO.
Figure S7: UV-vis absorption spectra of 1, Fe(III), and 1 + Fe(III). The graph for 1 + Fe(III) (Numerically) was constructed by numerically adding the respective signals of Fe(III) and 1 to show what graph could be expected if the two species were in the same solution without interacting.
Figure S8: UV-vis absorption spectra of 2a, Fe(III), and 2a + Fe(III). The graph for 2a + Fe(III) (Numerically) was constructed by numerically adding the respective signals of Fe(III) and 2a to show what graph could be expected if the two species were in the same solution without interacting. […]

β-galactosidase = target: T1, β-galactosidase (Escherichia coli, UniProt P00722); experiment: AIE fluorescence study of release of 1 with β-galactosidase; assay type: biochemical, e.coli; conditions: for Relative emission intensity at 480 nm: 20 μM in water; for Fluorescence emission / release of 1 (in words): water, three enzyme units of β-galactosidase, 0 h and 24 h
T1 construct: purchased Roche; host or cells: E. coli overproducer
Protocol: The AIE fluorescence properties of 1 were used as a means of supporting the above conclusion. The emission of all glycosylated prodrugs is suppressed. Thus, solutions of each prodrug were prepared in water, and three enzyme units of β-galactosidase or β-glucosidase, as appropriate, were added to the prodrugs. Each mixture was then analysed by fluorescence spectroscopy after 24 h of incubation. […] This finding is consistent with a lack of enzymatic activation.
Fig. 4 Relative emission intensity at 480 nm (*for 3b at 420 nm) of evaluated compounds at 20 μM before and after incubation with 3 U of the appropriate enzyme. TEXT PRINTED IN THE PICTURE: 1: Relative Emission 480 nm: 100% (Before incubation); Relative Emission 480 nm: 100% (After 24 h incubation) | 2a: Relative Emission 480 nm: 0% (Before incubation); Relative Emission 480 nm: 0% (After 24 h incubation) | 2b: Relative Emission 480 nm: 0% (Before incubation); Relative Emission 480 nm: 1% (After 24 h incubation) | 3a: Relative Emission 480 nm: 1% (Before incubation); Relative Emission 480 nm: 33% (After 24 h incubation) | 3b*: Relative Emission 480 nm: 1% (Before incubation); Relative Emission 480 nm: 11% (After 24 h incubation) […]
Figure S25: Fluorescence spectra for excitation (blue) and emission (green) of 1 at a concentration of 20 μM in water.
Figure S26: Fluorescence spectra for excitation (blue) and emission (green) of 2a at a concentration of 20 μM in water before (left) and after (right) incubation with 3 units of b-galactosidase for 24 h. […]
Figure S28: Fluorescence spectra for excitation (blue) and emission (green) of 3a at a concentration of 20 μM in water before (left) and after (right) incubation with 3 units of β-galactosidase for 24 h. […]

[2] = after 24 h incubation with 3 U β-galactosidase
[3] = before incubation with 3 U β-galactosidase

T1 sequence (P00722 2-1024): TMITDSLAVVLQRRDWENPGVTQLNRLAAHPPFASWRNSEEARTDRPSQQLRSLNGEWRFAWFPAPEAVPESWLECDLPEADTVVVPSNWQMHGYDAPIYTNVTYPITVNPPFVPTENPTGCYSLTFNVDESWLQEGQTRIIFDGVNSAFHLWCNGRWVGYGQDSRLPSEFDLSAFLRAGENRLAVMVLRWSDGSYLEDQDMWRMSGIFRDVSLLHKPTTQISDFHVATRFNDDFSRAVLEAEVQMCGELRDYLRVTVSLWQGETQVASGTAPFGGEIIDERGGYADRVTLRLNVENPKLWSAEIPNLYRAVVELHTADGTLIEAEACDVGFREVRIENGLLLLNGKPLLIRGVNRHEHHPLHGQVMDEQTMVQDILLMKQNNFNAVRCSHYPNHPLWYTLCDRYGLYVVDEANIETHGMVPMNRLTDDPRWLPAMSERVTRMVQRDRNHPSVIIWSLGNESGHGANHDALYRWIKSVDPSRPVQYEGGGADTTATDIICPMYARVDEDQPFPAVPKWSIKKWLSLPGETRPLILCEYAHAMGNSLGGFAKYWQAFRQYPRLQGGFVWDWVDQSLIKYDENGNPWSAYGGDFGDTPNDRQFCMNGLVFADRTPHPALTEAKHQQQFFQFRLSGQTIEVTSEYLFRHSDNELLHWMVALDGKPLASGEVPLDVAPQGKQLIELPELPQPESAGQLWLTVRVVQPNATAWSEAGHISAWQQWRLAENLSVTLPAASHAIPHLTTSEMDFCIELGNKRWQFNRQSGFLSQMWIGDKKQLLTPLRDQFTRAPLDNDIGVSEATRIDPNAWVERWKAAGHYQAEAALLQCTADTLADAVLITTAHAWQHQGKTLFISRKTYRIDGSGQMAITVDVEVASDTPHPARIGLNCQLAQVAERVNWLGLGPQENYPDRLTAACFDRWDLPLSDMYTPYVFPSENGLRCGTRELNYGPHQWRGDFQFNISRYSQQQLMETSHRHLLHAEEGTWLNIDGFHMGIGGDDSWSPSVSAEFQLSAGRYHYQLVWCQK

`OC[C@H]1OC(Oc2ccccc2-c2nc(-c3ccccc3O)nn2-c2ccccc2)[C@H](O)[C@@H](O)[C@H]1O` (stereo partly shown) [2a] gave an IC50 (A549 cells) of 74.4 ± 14.1 µM, an IC50 (OvCar-3 cells) of 67.6 ± 13 µM and an IC50 (GM5756 fibroblast cells) of over 100 µM. For the same molecule, the “Absorbance at 510 nm (Fe(III) chelation band)” value (“Absorbance at 510 nm” below) [1] was “no relevant absorbance at 510 nm”, the “Relative emission intensity at 480 nm” value (β-galactosidase; [2]) was 0% and the “Relative emission intensity at 480 nm” value (β-galactosidase; [3]) was 0%. The “Fluorescence emission / release of 1 (in words)” value (β-galactosidase) was “no fluorescence emission was observed”.

Molecule `OC[C@H]1OC(Oc2ccccc2-c2nc(-c3ccccc3O)nn2-c2ccccc2)[C@H](O)[C@@H](O)[C@@H]1O` (stereo partly shown) [2b] has an IC50 (A549 cells) of over 100 µM, an IC50 (OvCar-3 cells) of 76.5 ± 0.8 µM and an IC50 (GM5756 fibroblast cells) of over 100 µM. The “Absorbance at 510 nm” value [1] was “no relevant absorbance at 510 nm”.

`OC[C@H]1OC(Oc2ccc(COc3ccccc3-c3nc(-c4ccccc4O)nn3-c3ccccc3)cc2)[C@H](O)[C@@H](O)[C@H]1O` (stereo partly shown) [3a] gave an IC50 (A549 cells) of 44.1 ± 2.4 µM, an IC50 (OvCar-3 cells) of 9.1 ± 1.6 µM and an IC50 (GM5756 fibroblast cells) of over 100 µM. The “Absorbance at 510 nm” value [1] was “no relevant absorbance at 510 nm”, the “Relative emission intensity at 480 nm” value (β-galactosidase; [2]) was 33% and the “Relative emission intensity at 480 nm” value (β-galactosidase; [3]) was 1%. The “Fluorescence emission / release of 1 (in words)” value (β-galactosidase) was “readily discernible release of 1”.

In the case of `OC[C@H]1OC(Oc2ccc(COc3ccccc3-c3nc(-c4ccccc4O)nn3-c3ccccc3)cc2)[C@H](O)[C@@H](O)[C@@H]1O` (stereo partly shown) [3b], the IC50 (A549 cells) is reported as 7.4 ± 1.5 µM, the IC50 (OvCar-3 cells) is reported as 3.7 ± 0.3 µM and the IC50 (GM5756 fibroblast cells) is reported as 15.3 ± 2.3 µM. The “Absorbance at 510 nm” value [1] was “no relevant absorbance at 510 nm”.
